Source: patent US10919859B2, “Benzylaminopyridylcyclopropanecarboxylic acids, pharmaceutical compositions and uses thereof” (Boehringer Ingelheim International GmbH, priority 2017, dated 2021)
Converted amounts (≈) assume the structure as drawn.

Experiments:
human GPR40 receptor = human GPR40 receptor (Homo sapiens (Human), UniProt O14842); experiment: IP1 accumulation measurements using the IPOne assay system; type: cell-based; conditions: 1321N1 cells stably expressing human GPR40, 1 h at 37° C.
Chain of human GPR40 receptor (O14842 whole entry): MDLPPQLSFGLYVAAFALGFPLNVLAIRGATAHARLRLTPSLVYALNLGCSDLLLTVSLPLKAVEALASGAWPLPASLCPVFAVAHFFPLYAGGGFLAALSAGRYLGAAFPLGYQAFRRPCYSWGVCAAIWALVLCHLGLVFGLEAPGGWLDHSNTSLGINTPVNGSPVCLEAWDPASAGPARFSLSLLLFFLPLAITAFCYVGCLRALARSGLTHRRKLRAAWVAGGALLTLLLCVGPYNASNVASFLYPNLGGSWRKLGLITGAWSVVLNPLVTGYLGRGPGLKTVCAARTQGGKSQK
Procedure: IP1 accumulation measurements using the IPOne assay system—1321N1 cells stably expressing human GPR40 receptor (Euroscreen, Belgium) are seeded 24 h before the assay in white 384-well plates in culture medium containing 10% FCS, 1% Na-Pyruvate and 400 μg/mL G418. IP1 is assayed according to the manufacturer's description (Cisbio Bioassays, France). In brief, the assay is started by substitution of the culture medium by stimulation buffer (Hepes 10 mM, CaCl2 1 mM, MgCl2 0.5 mM, KCl 4.2 mM, NaCl 146 mM, glucose 5.5 mM and LiCl 50 mM, pH 7.4). Cells are stimulated for 1 h at 37° C., 5% CO2 by addition of the compounds that are diluted in stimulation buffer containing LiCl. Assays are stopped by adding HTRF-conjugates (IP1-d2 and Anti-IP1 cryptate Tb) and lysis buffer, provided by the manufacturer. After an incubation time of 1 h at room temperature plates are measured using an EnVision™, Perkin Elmer. The obtained fluorescence ratios at 665/615 […] are then used to calculate the pEC50 values using Assay Explorer 3.3 Software (Accelrys, Inc.) by interpolation using an IP1 reference curve and subsequent sigmoidal curve fitting allowing for a variable hill slope.

[1] = Aqueous solubility (buffer vs acetonitrile/water, LC-UV); type: physicochemical; conditions: for solubility at 24 h: aqueous buffer, kinetic from dmso stock
Procedure: The aqueous solubility of the compounds of the invention is determined by comparing the amount dissolved in buffer to the amount in an acetonitrile/water (1/1) solution. Starting from a 10 mM DMSO stock solution aliquots are diluted with acetonitrile/water (1/1) or buffer, respectively. After 24 h of shaking, the solutions are filtrated and analyzed by LC-UV. The amount dissolved in buffer is compared to the amount in the acetonitrile solution.

[2] = pH 2.2 buffer, 24 h shaking, 2.5% DMSO, examples in this invention

SMILES | EC50 (human GPR40 receptor) | Solubility at pH value 2.2 [1, 2] | Solubility at pH value 2.2 ([1]; pH 2.2) | solubility at 24 h [1, 2]
CCc1cccc(CC)c1-c1ccc(F)c(CNc2ccc([C@H]3C[C@@H]3C(=O)O)nc2)c1 [Example 53] | 57 nM | 50 μg/mL | – | –
COc1cc(OC)c(F)c(-c2ccc(F)c(CNc3ccc([C@H]4C[C@@H]4C(=O)O)nc3)c2)c1F [Example 52] | 836 nM | – | 62 μg/mL | –
Cc1cccc(C)c1-c1ccc(F)c(CNc2ccc([C@H]3C[C@@H]3C(=O)O)nc2)c1 [Example 41] | 41 nM | – | 59 μg/mL | –
O=C(O)[C@H]1C[C@@H]1c1ccc(NCc2ccc(C(F)(F)F)c(-c3ccc(OCC4CC4)cc3)c2)cn1 [Example 3, (1S,2S)-2-{5-[(4′-Cyclopropylmethoxy-6-trifluoromethyl-biphenyl-3-ylmethyl)-amino]-pyridin-2-yl}-cyclopropanecarboxylic acid] | 22 nM | – | – | 22 µg/mL (≈ 45.6 µM)
Cc1cc(OCC2(O)CCS(=O)(=O)CC2)cc(C)c1-c1ccc(F)c(CNc2ccc([C@H]3C[C@@H]3C(=O)O)nc2)c1 [Example 46] | 171 nM | – | 102 μg/mL | –
O=C(O)[C@H]1C[C@@H]1c1ccc(NCc2cc(-c3ccc(-c4cnco4)cc3)ccc2F)cn1 [Example 32] | 174 nM | 56 μg/mL | – | –
Cc1cc(OCCC(C)(C)O)cc(C)c1-c1ccc(F)c(CNc2ccc([C@H]3C[C@@H]3C(=O)O)nc2)c1 [Example 19] | 27 nM | – | 81 μg/mL | –
Cc1cnc(-c2cc(C)c(-c3ccc(F)c(CNc4ccc([C@H]5C[C@@H]5C(=O)O)nc4)c3)c(C)c2)nc1 [Example 51] | 6 nM | 58 μg/mL | – | –
N#Cc1cccc(C#N)c1-c1ccc(F)c(CNc2ccc([C@H]3C[C@@H]3C(=O)O)nc2)c1 [Example 38] | > 10000 nM | – | >83 μg/mL | –
N#CC1(c2ccccc2-c2ccc(F)c(CNc3ccc([C@H]4C[C@@H]4C(=O)O)nc3)c2)CC1 [Example 29] | 696 nM | – | 57 μg/mL | –
Cc1cc(OCCCS(C)(=O)=O)cc(C)c1-c1cccc(CNc2ccc([C@H]3CC3C(=O)O)nc2)c1 (stereo partly shown) [Example 1] | 50 nM | – | – | 83 µg/mL (≈ 163 µM)
CNC(=O)c1cc(C)c(-c2ccc(F)c(CNc3ccc([C@H]4C[C@@H]4C(=O)O)nc3)c2)c(C)c1 [Example 43] | 358 nM | – | 84 μg/mL | –
Cc1cc(C(=O)O)cc(C)c1-c1ccc(F)c(CNc2ccc([C@H]3C[C@@H]3C(=O)O)nc2)c1 [Example 45] | 3660 nM | – | 69 μg/mL | –
Cc1cc(C(N)=O)cc(C)c1-c1ccc(F)c(CNc2ccc([C@H]3C[C@@H]3C(=O)O)nc2)c1 [Example 27] | 401 nM | – | 62 μg/mL | –
Cc1cc(OCC2CCOC2)cc(C)c1-c1ccc(F)c(CNc2ccc([C@H]3C[C@@H]3C(=O)O)nc2)c1 (stereo partly shown) [Example 26] | 39 nM | – | 70 μg/mL | –
COc1ccc(-c2ccc(-c3cc(CNc4ccc([C@H]5C[C@@H]5C(=O)O)nc4)c(F)cc3F)cc2)nn1 [Example 6, (1S,2S)-2-(5-{[4,6-Difluoro-4′-(6-methoxy-pyridazin-3-yl)-biphenyl-3-ylmethyl]-amino}-pyridin-2-yl)-cyclopropanecarboxylic acid] | 64 nM | – | – | 56 µg/mL (≈ 115 µM)
O=C(O)[C@H]1C[C@@H]1c1ccc(NCc2ccc(C(F)(F)F)c(-c3ccc(OC(F)(F)F)cc3)c2)cn1 [Example 4, (1S,2S)-2-{5-[(4′-Trifluoromethoxy-6-trifluoromethyl-biphenyl-3-ylmethyl)-amino]-pyridin-2-yl}-cyclopropanecarboxylic acid] | 44 nM | – | – | 14 µg/mL (≈ 28.2 µM)
Cc1cc(OCCC(C)(C)O)cc(C)c1-c1cc(CNc2ccc([C@H]3C[C@@H]3C(=O)O)nc2)ccc1C(F)(F)F [Example 5] | 12 nM | – | – | < 1 µg/mL
O=C(O)[C@H]1C[C@@H]1c1ccc(NCc2cc(-c3c(F)cc(OC4CC4)cc3F)ccc2F)cn1 [Example 33] | 297 nM | – | 53 μg/mL | –
COc1cc(OC)c(Cl)c(-c2ccc(F)c(CNc3ccc([C@H]4C[C@@H]4C(=O)O)nc3)c2)c1Cl [Example 28] | 30 nM | – | 18 μg/mL | –
Cc1cc(N)ccc1-c1cc(CNc2ccc([C@H]3C[C@@H]3C(=O)O)nc2)c(F)cc1F [Example 8, (1S,2S)-2-{5-[(4′-Amino-4,6-difluoro-2′-methyl-biphenyl-3-ylmethyl)-amino]-pyridin-2-yl}-cyclopropanecarboxylic acid] | 127 nM | – | – | > 96 µg/mL

SMILES | EC50 (human GPR40 receptor) | Solubility at pH value 2.2 [1, 2] | Solubility at pH value 2.2 ([1]; pH 2.2) | solubility at 24 h [1, 2]
Cc1cc(-c2ccnn2C)cc(C)c1-c1ccc(F)c(CNc2ccc([C@H]3C[C@@H]3C(=O)O)nc2)c1 [Example 55] | 12 nM | – | 53 μg/mL | –
Cc1cc(-c2ccn(C)c(=O)c2)cc(C)c1-c1ccc(F)c(CNc2ccc([C@H]3C[C@@H]3C(=O)O)nc2)c1 [Example 16] | 29 nM | – | 79 μg/mL | –
Cc1cc(OCC2(O)CCSCC2)cc(C)c1-c1ccc(F)c(CNc2ccc([C@H]3C[C@@H]3C(=O)O)nc2)c1 [Example 48] | 56 nM | – | 67 μg/mL | –
Cc1cc(-c2nnn(CC(C)(C)O)n2)cc(C)c1-c1ccc(F)c(CNc2ccc([C@H]3C[C@@H]3C(=O)O)nc2)c1 [Example 54] | 10 nM | – | 81 μg/mL | –
COc1cc(-c2cc(C)c(-c3ccc(F)c(CNc4ccc([C@H]5C[C@@H]5C(=O)O)nc4)c3)c(C)c2)ccn1 [Example 47] | 5 nM | – | 57 μg/mL | –
COc1cc(C)c(-c2ccc(F)c(CNc3ccc([C@H]4C[C@@H]4C(=O)O)nc3)c2)c(C)c1 [Example 35] | 49 nM | – | 63 μg/mL | –
Cc1cc(OCC2CCOCC2)cc(C)c1-c1ccc(F)c(CNc2ccc([C@H]3C[C@@H]3C(=O)O)nc2)c1 [Example 44] | 18 nM | – | 66 μg/mL | –
Cc1cc(CO)cc(C)c1-c1ccc(F)c(CNc2ccc([C@H]3C[C@@H]3C(=O)O)nc2)c1 [Example 22] | 206 nM | – | 48 μg/mL | –
COc1c(F)cc(-c2cc(CNc3ccc([C@H]4C[C@@H]4C(=O)O)nc3)c(F)cc2F)cc1F [Example 10, (1S,2S)-2-{5-[(4,6,3′,5′-Tetrafluoro-4′-methoxy-biphenyl-3-ylmethyl)-amino]-pyridin-2-yl}-cyclopropanecarboxylic acid] | 52 nM | – | – | 61 µg/mL (≈ 137 µM)
Cc1cc(O[C@H]2CCOC2)cc(C)c1-c1ccc(F)c(CNc2ccc([C@H]3C[C@@H]3C(=O)O)nc2)c1 [Example 25] | 28 nM | – | 69 μg/mL | –
O=C(O)[C@H]1C[C@@H]1c1ccc(NCc2cc(-c3ccccc3C(F)(F)F)ccc2F)cn1 [Example 37] | 38 nM | – | 68 μg/mL | –
Cc1cc(OCC(C)(C)C#N)cc(C)c1-c1ccc(F)c(CNc2ccc([C@H]3C[C@@H]3C(=O)O)nc2)c1 [Example 13] | 59 nM | – | 49 μg/mL | –
O=C(O)[C@H]1C[C@@H]1c1ccc(NCc2cc(-c3c(Cl)cccc3Cl)ccc2F)cn1 [Example 30] | 34 nM | – | 53 μg/mL | –
Cc1cc(-c2cc(=O)n(C)cn2)cc(C)c1-c1ccc(F)c(CNc2ccc([C@H]3C[C@@H]3C(=O)O)nc2)c1 [Example 18] | 23 nM | – | 72 μg/mL | –
COc1cc(F)c(-c2ccc(F)c(CNc3ccc([C@H]4C[C@@H]4C(=O)O)nc3)c2)c(F)c1 [Example 40] | 988 nM | – | 62 μg/mL | –
Cc1cc(OCC(C)(C)O)cc(C)c1-c1ccc(F)c(CNc2ccc([C@H]3C[C@@H]3C(=O)O)nc2)c1 [Example 21] | 101 nM | – | 82 μg/mL | –
O=C(O)[C@H]1C[C@@H]1c1ccc(NCc2cc(-c3c(F)cccc3F)ccc2F)cn1 [Example 39] | 435 nM | – | 46 μg/mL | –
O=C(O)[C@H]1C[C@@H]1c1ccc(NCc2cc(-c3ccc(O)c(Cl)c3)c(F)cc2F)cn1 [Example 9, (1S,2S)-2-{5-[(3′-Chloro-4,6-difluoro-4′-hydroxy-biphenyl-3-ylmethyl)-amino]-pyridin-2-yl}-cyclopropanecarboxylic acid] | 943 nM | – | – | 58 µg/mL (≈ 135 µM)
CC(C)c1ccccc1-c1ccc(F)c(CNc2ccc([C@H]3C[C@@H]3C(=O)O)nc2)c1 [Example 50] | 81 nM | 48 μg/mL | – | –
Cc1cc(OCc2ccccc2)cc(C)c1-c1ccc(F)c(CNc2ccc([C@H]3C[C@@H]3C(=O)O)nc2)c1 [Example 12] | 44 nM | – | 27 μg/mL | –
